The values below come from PubChem BioAssay AID1508612.

SMILES strings stand for the structures. Bounds are passed on as bounds.

Broadly, the Papp is the rate of passage across a membrane or cell layer, normalised by area and donor concentration. Lower therefore signals slow passage.

This data set can be described thus: passive permeability, PAMPA, ADME assay (AID 1508612). As to conditions: pH 7.4, 30.0 min, 50.0 µM. In general terms: The PAMPA barrier holds no transporters, so it reflects passive diffusion.
`COc1ccccc1Nc1ccnc(N2CCN(C(=O)c3ccc(F)cc3)CC2)n1`: the Papp was greater than 10000 nm/s. The molecule `CC1(C)CCC(c2ccc(Cl)cc2)=C(CN2CCN(c3ccc(C(=O)NS(=O)(=O)c4ccc(N[C@H](CCN5CCOCC5)CSc5ccccc5)c(S(=O)(=O)C(F)(F)F)c4)cc3)CC2)C1` came in with a Papp of 11 nm/s. With `CSc1ncc(Cl)c(C(=O)Nc2c(C)cccc2C)n1`, the Papp was determined as 5080 nm/s. `O=C(CCc1ccccc1)NC(c1cccs1)c1cc(Cl)c2cccnc2c1O` (stereo unspecified) gave a Papp of 209 nm/s. The result for `CCc1oc2ccccc2c1C(=O)c1cc(I)c(O)c(I)c1` reads 677 nm/s. `NC(=O)C1CCN(c2nc(-c3ccccc3C(F)(F)F)cs2)CC1` showed a Papp of 5440 nm/s. In the case of `Cc1ccc(S(=O)(=O)Nc2cnccc2C(=O)Nc2nc(-c3ccncc3)cs2)cc1`, the Papp was 744 nm/s.

As for `COC(=O)[C@]12CCC(C)(C)C[C@@H]1[C@@H]1C(=O)C=C3[C@@]4(C)C=C(C#N)C(=O)C(C)(C)[C@@H]4CC[C@@]3(C)[C@]1(C)CC2`, the Papp worked out at 162 nm/s. As for `COc1ccc2[nH]c3c(c2c1)CCNC31CCN(S(=O)(=O)c2c(C)noc2C)CC1`, the Papp came to 790 nm/s. The molecule `COc1ccc(C2c3c(ncn(CCN4CCOCC4)c3=N)Oc3ccc4ccccc4c32)cc1OC` (stereo unspecified) gave a Papp greater than 10000 nm/s. On to `COC(=O)CNC(=O)c1nc(-c2ccc([S+](C)(=O)[O-])cc2)c2ccccn12`, for which the Papp turned out to be 3300 nm/s. Turning to `COc1ccc2oc(NC3=NC(c4[nH]ncc4Cl)C4=C(CCCC4=O)N3)nc2c1` (stereo unspecified), the apparent permeability (Papp) worked out at 7060 nm/s. Molecule `Cc1csc2c1c(=O)n(O)c(=O)n2Cc1ccccc1` displayed a Papp of 1160 nm/s. Turning to `CCCS(=O)(=O)c1nc(NC2CC2)cc(-c2ccc3c(ccn3C3CC(C)(C)NC(C)(C)C3)c2)n1`, the apparent permeability (Papp) is 1070 nm/s. `Cn1cnc(-c2nccc3c(=O)[nH]c(OCCCC(F)(F)F)nc23)c1` had a Papp of 1090 nm/s.

`O=C1Nc2ccccc2/C1=C\c1ccc(O)c(Cl)c1` displayed a Papp of 6080 nm/s. On to `COc1cc2c(cc1OCCCN1CCCC1)N=C(N)C21CCC1`, for which the Papp stood at 60.8 nm/s. As for `Fc1cc(Nc2nc(-c3ccncc3)nc3ccccc23)ccc1N1CCCC1`, the Papp was 1100 nm/s. In the case of `CNS(=O)(=O)c1cc(-c2nn3c(C)nnc3c3ccccc23)ccc1C`, the Papp is 1460 nm/s. For `CC(C)CNc1ccnc(NCc2csc(-c3ccccc3)n2)n1`, the Papp was greater than 10000 nm/s. As to `O=C(Nc1cn[nH]c1-c1nc2ccc(CN3CCOCC3)cc2[nH]1)NC1CC1`, the Papp came out at 50.7 nm/s. Regarding `O=C1Nc2ccccc2/C1=C\c1cc(F)c(O)c(F)c1`, the Papp was 270 nm/s. Take `Cc1cc(S(=O)(=O)Nc2cnccc2C(=O)Nc2nc(-c3ccccc3)cs2)c(C)o1`: the Papp was determined as 7680 nm/s. On to `CCOC(=O)c1ccc(NC2CCCCC2)c(N)c1`, for which the Papp was greater than 10000 nm/s. Molecule `CCc1ccc(C2N=C(N)Nc3nc4ccccc4n32)cc1` (stereo unspecified) came in with an apparent permeability (Papp) of 46.5 nm/s. `CC(NCc1ccc2c(c1)nc(NC(=O)c1ccc(-c3cn[nH]c3)s1)n2CC(C)(C)O)C(C)(C)C` (stereo unspecified) registered a Papp of 8200 nm/s.

As for `COc1cccc(CNc2ccc(S(=O)(=O)Nc3nc4ccccc4[nH]3)cc2)c1O`, the Papp turned out to be 308 nm/s. As to `COCc1cc(C)nc(SCC(=O)c2ccc(O)c(O)c2)c1C#N`, the Papp turned out to be 1180 nm/s. The result for `CC(C)(C)c1ccc(-c2nc(SCCCOc3ccccc3)n3[nH]c(=O)cc3n2)cc1` reads 101 nm/s; that for `Cc1ccc(S(=O)(=O)Nc2cnccc2C(=O)Nc2nc(C3CCC3)cs2)cc1`, 4970 nm/s. The result for `NC(=O)C1CCN(c2nc(-c3cccc(Br)c3)cs2)CC1` reads 7880 nm/s; that for `Nc1ccc(-c2cccc3c(=O)cc(N4CCOCC4)oc23)cc1`, 656 nm/s; that for `CC(=O)NCc1ccc(-c2csc(Nc3cccc(C)c3)n2)o1`, greater than 10000 nm/s. For `Cc1cccc(-n2cnc3cc(C(=O)N4CCCC(C(C)C)C4)ccc32)c1` (stereo unspecified), the Papp was greater than 10000 nm/s. Take `COc1cccc(CNc2ccc(S(=O)(=O)Nc3nccs3)cc2)c1O`: the apparent permeability coefficient (Papp) was 358 nm/s. `CC1=NN(c2ccc(C(=O)O)cc2)C(=O)/C1=C/c1ccc(-c2cc(C)c(C)cc2[N+](=O)[O-])o1` registered a Papp of 2380 nm/s. `COc1ccc(-c2ccc3ncc(Nc4cccnc4OC)n3n2)cn1` displayed a Papp greater than 10000 nm/s.

The molecule `CCOC(=O)N1CCN(Cc2nc3c(c(=O)n(C)c(=O)n3C)n2Cc2ccc(F)cc2)CC1` displayed a Papp of 5500 nm/s. Turning to `Fc1cnc(-c2ccccc2C(F)F)nc1NCc1ccc(-c2cccnc2)cc1`, the Papp is greater than 10000 nm/s. In the case of `CC(=O)c1c(C)[nH]c(C(=O)Nc2cccc([S+](=O)([O-])N3CC[C@@H](F)C3)c2)c1C`, the Papp came to 1990 nm/s. For the molecule `CCCCC(C)/C=C(C)/C=C(\C)C(=O)NC1=CC(O)(/C=C/C=C/C=C/C(=O)NC2=C(O)CCC2=O)C2OC2C1=O` (stereo unspecified), the Papp came to 9550 nm/s. Consider `Cc1cccc(-n2c(C)cc(C=C(C#N)C#N)c2C)c1`, for which the Papp is 430 nm/s.

Regarding `Cc1ccc(-c2cc(C(=O)Nc3ccc(-n4cncn4)cc3)c3ccccc3n2)cc1C`, the Papp is less than 10 nm/s. In the case of `O=[S+]([O-])(Nc1nccs1)c1ccc(NCc2cccc(Cl)c2)cc1`, the Papp turned out to be 3950 nm/s. `COc1ccc(-c2ccc3nc(-c4ccc(SC)cc4)oc3c2)c(OC)c1OC` came in with an apparent permeability coefficient (Papp) of less than 10 nm/s.

In the case of `Cc1ccc(S(=O)(=O)Nc2cnccc2C(=O)Nc2nc(-c3cccc(F)c3)cs2)cc1`, the Papp came out at 1530 nm/s.
